Earlier results on five compounds are cited in patent US20190091190A1, “COMBINATION THERAPY FOR TREATMENT OF MULTIPLE SCLEROSIS” (FWP IP ApS, priority 2012, published 2019).

Read-outs that look alike come from different tables or passages of the source.

Data set [1] has as its system patients with RRMS. Particulars: for reduction of 12-week confirmed disability progression as measured by EDSS: at 2 years.
The test system of data set [2] is patients with RRMS. The conditions noted are these: for reduction of lymphocyte counts: after 1 month; for patients remaining relapse-free: 12 months.
For data set [3], the system named is patients with EDSS scores of 0-5.5 and relapses. Particulars: for reduction of frequency of MS relapses vs. placebo: 24 months.
Data set [4] has as its system RRMS patients. The conditions noted are these: 0.6 mg once-daily oral.
The subject of data set [5] is RRMS patients.
The subject of data set [6] is RRMS patients. The conditions noted are these: for time to first relapse during the two years of the study: 45.6% on placebo.
Data set [7] relates to patients with RRMS. The conditions noted are these: 7 mg po once-daily.
The subject of data set [8] is RRMS patients. The source holds these as a separate data set.
For data set [9] the following is noted: 7 mg and 14 mg, add-on to IFN.
For data set [10] the following is noted: 7 mg or 14 mg added to glatiramer acetate, vs placebo added.

`COC(=O)/C=C/C(=O)OC` [dimethylfumarate, trans-1,2-Ethylenedicarboxylic acid dimethyl ester]: in the data set with patients with RRMS [1] (240 mg po BID), the “reduction of annualized relapse rate versus placebo” value is 44%, the “reduction of new T1-hypointense lesions” value is 57%, the “reduction of number of new or newly enlarging T2-hyperintense lesions” value is 71% and the “reduction of proportion of patients who relapsed” value was 34%. Further, in the data set with patients with RRMS [1] (240 mg po BID), the “reduction of 12-week confirmed disability progression as measured by EDSS” value (from here on “reduction … by EDSS”) is listed as 21%. For the same compound, in the data set with patients with RRMS [1] (240 mg po TID), the “reduction of annualized relapse rate versus placebo” value is reported as 51%, the “reduction of new T1-hypointense lesions” value was 65%, the “reduction of number of new or newly enlarging T2-hyperintense lesions” value is 73% and the “reduction of proportion of patients who relapsed” value is 45%. Further, the “reduction … by EDSS” value with patients with RRMS [1] (240 mg po TID) was 24%. Moreover, the “most common adverse effects” value with patients with RRMS [1] (dimethylfumarate groups (BID and TID)) was “flushing and gastrointestinal (GI) events”. For the same compound, in the data set on patients with RRM (240 po BID), the “reduction in annualized relapse rate versus placebo” value was 53% and the “reduction in proportion of patients who relapsed at 2 years versus placebo (primary endpoint)” value was 49%. In addition, in the data set on patients with RRM (240 po TID), the “reduction in annualized relapse rate versus placebo” value is on record as 48% and the “reduction in proportion of patients who relapsed at 2 years versus placebo (primary endpoint)” value is recorded as 50%.
Take `CCCCCCCCc1ccc(CCC(N)(CO)CO)cc1` [fingolimod]: the “AE leading to the discontinuation of study medication” value in the data set on patients with RRMS [2] (0.5 mg) is on record as 5.6%; with patients with RRMS [2] (1.25 mg), 10.0%. Also, the “overall number of SAE” value in the data set with patients with RRMS [2] (0.5 mg) was 7.0%; in the data set with patients with RRMS [2] (1.25 mg), 10.7%. Further, the “patients who developed macular edema” value with patients with RRMS [2] (0.5 mg) is on record as 0.5%; with patients with RRMS [2] (1.25 mg) it was 1%. Also, the “reduction of lymphocyte counts” value in the data set with patients with RRMS [2] (0.5 mg) is 73%; with patients with RRMS [2] (1.25 mg) it was 77%. Also, the “1-year relapse rate lower than with Avonex” value with patients with RRMS [2] (0.5 mg/day oral) is recorded as 52%; with patients with RRMS [2] (1.25 mg/day oral) it was 38%. The patients remaining relapse-free is 83% in the data set with patients with RRMS [2] (0.5 mg/day oral) and 80% in the data set with patients with RRMS [2] (1.25 mg/day oral). Moreover, the “time to development of transient, dose-dependent reduction in heart rate” value in the data set with patients with RRMS [2] (after the initial administration) was not above 1 h. Moreover, the “AEs that led to discontinuation of the study drug” value in data set [3] (0.5 mg) is given as 7.5 % of patients; in data set [3] (1.25 mg) it was 14.2 % of patients. For the same compound, the “lymphopenia of less than 0.2×10^9 per liter” value in data set [3] (0.5 mg) is listed as 3.5%; in data set [3] (1.25 mg) it was 5.4%. In addition, the “reduction of frequency of MS relapses vs. placebo” value in data set [3] (0.5 mg/day) is 54%; in data set [3] (1.25 mg/day) it was 60%. Also, the “reduction of risk of disability progression vs. placebo” value in data set [3] (0.5 mg/day, confirmed after 3 months) is 30%; in data set [3] (0.5 mg/day, confirmed after 6 months), 37%; in [3] (1.25 mg/day, confirmed after 3 months), 32%; in data set [3] (1.25 mg/day, confirmed after 6 months), 40%. Moreover, the macular edema diagnosed entry in [3] (1.25 mg) was “seven”.
Consider `CCN(C(=O)c1c(O)c2c(Cl)cccc2n(C)c1=O)c1ccccc1` [laquinimod], for which the “reduction in ARR” value in the data set on RRMS patients [4] (24 months, p=0.0024) is on record as 23%. For the same compound, the “reduction in progression of brain atrophy” value in the data set on RRMS patients [4] (p<0.0001) is given as 33%. In the data set with RRMS patients [4] (p=0.0122), the “reduction in the risk of EDDS progression” value is recorded as 36%. In addition, the “reduced ARR” value with RRMS patients [5] (0.6 mg once-daily oral, pre-specified sensitivity analysis corrected for baseline imbalances) was 21%. Further, in the data set with RRMS patients [5] (0.6 mg, corrected analysis, p=0.044), the “reduction in the risk of EDSS progression” value is listed as 34%. Besides, the “reduction in brain volume loss” value in the data set on RRMS patients [5] (0.6 mg, corrected analysis, p=<0.0001) is 28%. In addition, the “primary endpoint of reduction in ARR versus placebo” value with RRMS patients [5] (0.6 mg, uncorrected, p=0.075) is on record as “did not reach statistical significance”.
For the compound `C/C(O)=C(\C#N)C(=O)Nc1ccc(C(F)(F)F)cc1` [teriflunomide, (Z)-2-cyano-3-hydroxy-but-2-enoic acid-(4′-trifluoro-methylphenyl)-amide], in the data set with RRMS patients [6] (7 mg p.o. once-daily), the “reduction of annualized relapse rate (ARR) at 2 years compared to placebo” value is given as 31.2%, the “reduction of risk of disability progression” value is listed as 24% and the “reduction of the burden of disease (MRI) compared to placebo” value is 39%. Moreover, the “time to first relapse during the two years of the study” value in the data set on RRMS patients [6] (7 mg) is given as 53.7%. Further, in the data set with RRMS patients [6] (14 mg p.o. once-daily), the “reduction of annualized relapse rate (ARR) at 2 years compared to placebo” value is recorded as 31.5%, the “reduction of risk of disability progression” value is given as 30% and the “reduction of the burden of disease (MRI) compared to placebo” value is recorded as 67%. Further, the “time to first relapse during the two years of the study” value in the data set with RRMS patients [6] (14 mg) is 56.5%. Besides, in the data set with patients with RRMS [7], the relapse rate is 0.410. Besides, in the data set on RRMS patients [8] (7 mg p.o. once-daily), the “annualized relapse rate compared to placebo” value was “significant reduction” and the “risk of 12 wk sustained accumulation of disability compared to placebo” value is given as “no significant difference”. Besides, in the data set with RRMS patients [8] (14 mg p.o. once-daily), the “reduction in annualized relapse rate compared to placebo” value was 36.3% and the “reduction in the risk of 12wk sustained accumulation of disability compared to placebo” value is recorded as 31.5%. Moreover, the “reduction in annualized relapse rate” value in [9] was “no significant effect”. Further, the “reducing T1-Gd lesions” value in data set [10] is given as “more effective than placebo”.
As to Glatiramer acetate, in the data set with patients with RRMS [1] (20 mg sc once-daily), the “reduction of new T1-hypointense lesions” value was 41%, the “reduction of number of new or newly enlarging T2-hyperintense lesions” value is reported as 54%, the “reduction of proportion of patients who relapsed” value is given as 29% and the “reduction … by EDSS” value is listed as 7%.
